Source: US20110224300A1, “USE OF POTASSIUM 2-(a- HYDROXYPENTYL) BENZOATE IN THE MANUFACTURE OF MEDICAMENTS FOR PREVENTING AND/OR TREATING SENILE [sequence]” (Institute of Mataria Medica, Chinese Academy of Me, priority 2008, published 2011)

Legend:
ChAT [1] = test: ChAT activity of brain tissues from SAMP8 mice; assay type: in vivo
Protocol: (§1) The biochemical assays were conducted later (in 24 h) after behavioral testing. Eight rats in each group were anesthetized with ether and sacrificed. The brains were quickly removed and cleaned with ice-cold saline. Then the parietal cortex and hippocampus were isolated. For biochemical analysis, the tissues were weighed and homogenized in ice-cold saline with the proportion of 1:9 (w/v). Homogenization (IKA, Germany) was carried out for 2 min in an ice bath. After the homogenates were centrifuged at 2,000×g for 10 min at 4° C. (Sigma, Germany), the supernatant was used for analytical procedures. The levels of choline acetyltransferase (ChAT) SOD, and MDA activities were determined with commercial colorimetric assay kits (Nanjing Jiancheng Bioengineering Institute, China). The content of protein in the supernatant was determined by Bradford method using BSA as standard.
SAMP8 were divided into three experimental groups randomly: one vehicle control group, and two dl-PHPB-treated groups (50, and 160 mg/kg). Drugs and vehicle were administered orally to SAMP8 mice for 35 days (one time/each day). The spatial learning and memory abilities of SAMP8 mice were detected by Morris water maze and DTT-2 jumping apparatus in 31-35 days. The testing was commenced at 40 min after drugs treated. The biochemical and pathology assays conducted later (in 24 h) after behavioral testing. […]

ChAT [2] = test: ChAT activity of brain tissues from permanent 2-VO rats; assay type: in vivo, rat; details: for activity of ChAT in hippocampus: 21 days
Protocol: In 10 days after onset of 2-VO, drugs and vehicle were administered orally to rats for 21 days (one time/each day). The spatial learning and memory capability of rats were detected by Morris water maze in the 25-30 days after operation. The Morris water test was commenced at 40 min after drugs treated. The biochemical and pathology assays were conducted later (in 24 h) after behavioral tests.
as §1

GFAP = GFAP immunohistochemistry, activated astrocytes of 2-VO rats; assay type: in vivo, rat
Protocol: The method for tissue fixation was described above. Serial coronal sections (40 μm) of the brains were cut through the dorsal hippocampus on a freezing microtome and collected in 6-well plates containing 0.01 M PBS. The detection of GFAP and BDNF immunoreactivity was performed using a conventional avidin-biotin-immunoperoxidease technique.
For quantitative analysis, one from every five samples in a continuous series of hippocampal or cortical tissue sections was taken, and was processed immunohistochemically. Thus, three slides were taken from each rat, and were read under an objective (×1.6) microscope. The total area of positively stained neurons was counted with Image-pro Plus 5.0 software.
Cerebral damage caused by hypoperfusion may be the basis for spatial learning and memory impairment, including earliest white matter damage, accompanied by an increase of astrocytes and microglia activation. Glial fibrillary acidic protein (GFAP) immunohistochemical staining can be used to label the activated astrocytes. 2-3 photos were taken from each selected slices in the same regions. The number of the GFAP positive astrocytes was calculated as the average value of the region. Four anatomical regions were selected to observe: the cortex, hippocampus, corpus callosum and optic tract.

SAMP8 mice = test: Water maze test (blind sides) in SAMP8 mice; assay type: in vivo
Protocol: (§2) SAMP8 were divided into three experimental groups randomly: one vehicle control group, and two dl-PHPB-treated groups (50, and 160 mg/kg). Drugs and vehicle were administered orally to SAMP8 mice for 35 days (one time/each day). The spatial learning and memory abilities of SAMP8 mice were detected by Morris water maze and DTT-2 jumping apparatus in 31-35 days. The testing was commenced at 40 min after drugs treated. The biochemical and pathology assays conducted later (in 24 h) after behavioral testing.
The water maze consisted of square black opaque plastic box (80 cm×50 cm×20 cm), of which four blind-side and a terminal stage. When a black plastic sheet (15 cm×20 cm) was placed in different locations, there were different the starting points and different number of blind side. The water maze filled with water at 25±1° C. to a depth 12 cm. Mice can be placed in different starting point, making experience with different number of blind side to the end. The number of errors into the blind side and the time to reach the end platform (escape latency) was recorded.
Each mouse was permitted to stay there for 5 s and place in the pool, allowed 3 min to find the end platform. The escape latency (time to reach the platform) was used to assess acquisition of the water maze task. Sessions was repeated for 4 consecutive days.

MDA = MDA level of brain tissues from SAMP8 mice; assay type: in vivo; details: 35 days; for MDA level in the hippocampus / decrease of hippocampus MDA level compared with SAMP8: without statistical significance
Protocol: as §1, §2
The methods as described previously.

CCCCC(O)c1ccccc1C(=O)[O-].[K+] (racemic) [dl-PHPB, Potassium 2-(1-Hydroxypentyl)-benzoate]
ChAT activity in the hippocampus (ChAT [1]; 35 days, dose-dependent, P<0.05): significantly increased ChAT activity
ChAT activity in the cortex (ChAT [1]; cortex, data not shown): did not significantly improve ChAT activity
ChAT activity in cortex (ChAT [2]; cortex, data not shown): had no effect
activity of ChAT in hippocampus (ChAT [2]; dl-PHPB 13 mg/kg): did not show significant effects
activity of ChAT in hippocampus (ChAT [2]; dl-PHPB 39 mg/kg): did not show significant effects
activity of ChAT in hippocampus (ChAT [2]; dl-PHPB 129 mg/kg, P<0.05): significantly increased the activity of ChAT
GFAP-positive cells in the hippocampus (GFAP; administration of 21 days, P<0.05 or P<0.01): significantly less than in the vehicle group
GFAP-positive cells in the cortex (GFAP; administration of 21 days, in particular dl-PHPB 39 mg/kg (P<0.01)): significantly less than in the vehicle group
GFAP-positive cells in the optic tract (GFAP; dl-PHPB 39 mg/kg, 21 days): significantly less than the vehicle group
GFAP-positive cells in the hippocampus (GFAP; dl-PHPB 39 mg/kg, 21 days, P<0.01): most significant effect
GFAP positive cells in the corpus callosum (GFAP; dl-PHPB 39 mg/kg, P<0.05): significantly decreased level of GFAP positive cells
GFAP-positive cells in the optic tract (GFAP; dl-PHPB 129 mg/kg, 21 days): significantly less than the vehicle group
GFAP-positive cells in the hippocampus (GFAP; dl-PHPB 129 mg/kg, 21 days, P<0.01): most significant effect
number of errors into the blind-side (SAMP8 mice; 50 mg/kg oral, fifth test, vehicle 6.1±1.1, P<0.05): 3.1±0.9
escape latency time (SAMP8 mice; 50 mg/kg, last test, P<0.01 vs vehicle): significantly shorten the escape latency time
number of errors into the blind-side (SAMP8 mice; 160 mg/kg oral, fifth test, vehicle 6.1±1.1, P<0.05): 2.7±0.3
escape latency time (SAMP8 mice; 160 mg/kg, fourth training, P<0.05): significantly shortened the escape latency time
escape latency time (SAMP8 mice; 160 mg/kg, last test, P<0.01 vs vehicle): significantly shorten the escape latency time
escape latency time (SAMP8 mice; first and second trainings, each group): no significant difference
number of errors into the blind-side (SAMP8 mice; first three trainings, vs vehicle): no significant difference
number of errors into the blind-side (SAMP8 mice; fourth training, vs vehicle, dose not specified): significantly decreased the number of errors
escape latency time (SAMP8 mice; third training): tendency of the shorter escape latency
MDA level in the hippocampus (MDA; 50 mg/kg oral): 1.23±0.05 nmol/mg protein
decrease of hippocampus MDA level compared with SAMP8 (MDA; 50 mg/kg oral): 35.3%
MDA level in the hippocampus (MDA; 160 mg/kg oral): 1.26±0.09 nmol/mg protein
decrease of hippocampus MDA level compared with SAMP8 (MDA; 160 mg/kg oral): 33.7%
MDA level in the cortex (MDA; cortex, data not shown): did not significantly improved in MDA level
